From patent US20240316047A1, “INHIBITORS OF RNA HELICASE DHX9 AND USES THEREOF” (ACCENT THERAPEUTICS, INC., priority 2022, published 2024)

Target: Human recombinant DHX9 protein (Homo sapiens (Human), UniProt Q08211)
Test: DHX9 ATPase assay (ADP-Glo)
Assay type: biochemical
Details: for IC50: read-out: DHX9 Biochemical Inflection Point

Chain of Human recombinant DHX9 protein (Q08211 whole entry): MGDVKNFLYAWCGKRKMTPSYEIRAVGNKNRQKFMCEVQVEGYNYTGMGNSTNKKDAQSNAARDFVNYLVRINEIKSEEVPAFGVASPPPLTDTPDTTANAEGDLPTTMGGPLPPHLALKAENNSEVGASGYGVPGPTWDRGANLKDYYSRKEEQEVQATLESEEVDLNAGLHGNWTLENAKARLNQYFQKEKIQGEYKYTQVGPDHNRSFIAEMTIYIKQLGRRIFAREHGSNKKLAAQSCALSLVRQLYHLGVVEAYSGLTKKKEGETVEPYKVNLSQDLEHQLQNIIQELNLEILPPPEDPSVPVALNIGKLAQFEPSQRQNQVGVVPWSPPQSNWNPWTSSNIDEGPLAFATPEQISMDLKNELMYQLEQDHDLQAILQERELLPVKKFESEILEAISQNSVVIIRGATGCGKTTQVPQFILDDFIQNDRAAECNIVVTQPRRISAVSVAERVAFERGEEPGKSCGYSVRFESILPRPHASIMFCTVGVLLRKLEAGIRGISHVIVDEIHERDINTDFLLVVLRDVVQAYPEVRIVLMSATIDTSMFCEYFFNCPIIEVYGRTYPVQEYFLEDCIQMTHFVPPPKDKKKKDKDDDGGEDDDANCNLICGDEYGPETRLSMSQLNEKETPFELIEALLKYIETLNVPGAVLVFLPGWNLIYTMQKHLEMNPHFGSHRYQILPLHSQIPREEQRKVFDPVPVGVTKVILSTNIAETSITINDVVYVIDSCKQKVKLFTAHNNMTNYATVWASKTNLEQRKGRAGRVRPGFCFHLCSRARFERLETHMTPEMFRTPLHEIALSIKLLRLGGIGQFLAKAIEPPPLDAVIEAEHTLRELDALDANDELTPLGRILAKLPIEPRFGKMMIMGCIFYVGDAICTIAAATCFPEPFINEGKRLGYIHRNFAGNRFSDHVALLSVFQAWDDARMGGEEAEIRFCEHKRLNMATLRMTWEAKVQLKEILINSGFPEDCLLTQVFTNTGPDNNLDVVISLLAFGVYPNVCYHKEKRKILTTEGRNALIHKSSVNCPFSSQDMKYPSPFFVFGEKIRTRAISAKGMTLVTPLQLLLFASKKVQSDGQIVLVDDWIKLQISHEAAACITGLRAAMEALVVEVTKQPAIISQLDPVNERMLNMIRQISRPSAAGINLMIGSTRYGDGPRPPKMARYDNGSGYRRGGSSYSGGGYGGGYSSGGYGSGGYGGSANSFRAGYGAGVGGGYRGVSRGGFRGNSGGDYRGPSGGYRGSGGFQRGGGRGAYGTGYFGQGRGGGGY

| SMILES | DHX9 Biochemical Max Inhibition | IC50 [nM] |
| --- | --- | --- |
| Cn1nc(C(=O)Nc2cc(Cl)cc(NS(C)(=O)=O)c2)cc1-c1ccccc1OCc1ccccc1 [Example 138, 5-(2-(benzyloxy)phenyl)-N-(3-chloro-5-(methylsulfonamido)phenyl)-1-methyl-1H-pyrazole-3-carboxamide] | 42.6% | 13500 |
| Cc1sc(C(=O)Nc2cc(Cl)cc(NS(C)(=O)=O)c2)cc1-c1cn(C2CCOCC2)nn1 [Example 692] | 81.5 | 2.7 |
| Cc1sc(C(=O)Nc2cc(Cl)cc(NS(C)(=O)=O)c2)cc1-c1ncc(C(C)(O)C2CN(C)C2)cc1F (stereo not drawn) [Example 653] | 75.7 | 2 |
| Cc1sc(C(=O)Nc2cc(Cl)cc(NS(C)(=O)=O)c2)cc1-c1nccn1CCc1ccccc1 [Example 698] | 75.4 | 1050 |
| CS(=O)(=O)Nc1cc(Cl)cc(NC(=O)c2cc(C(=O)Nc3ccccc3)cs2)c1 [Example 166, N2-(3-chloro-5-(methylsulfonamido)phenyl)-N4-phenylthiophene-2,4-dicarboxamide] | 64% | 28.5 |
| CCS(=O)(=O)Nc1cc(Cl)cc(NC(=O)c2cc(-c3ccc(F)cn3)c(C)s2)c1 [Example 346] | 73% | 25.7 |
| Cn1cc(C(=O)Nc2cc(Cl)cc(NS(C)(=O)=O)c2)cc1-c1ccc(N2CC3(COC3)C2)cn1 [Example 277] | 72.5% | 4.3 |
| CS(=O)(=O)Nc1cc(Cl)cc(NC(=O)c2cc(-c3ccc(N4CC5(COC5)C4)cn3)n(CC(F)(F)F)c2)c1 [Example 278] | 74.1% | 44.2 |
| CS(=O)(=O)Nc1cc(Br)cc(NC(=O)c2cc(-c3ccccc3OCc3ccccc3)cs2)c1 [Example 30] | 40.5% | 787 |
| CN(C)C(=O)N1CCN(c2ccc(-n3cc(C(=O)Nc4cc(Cl)cc(NS(C)(=O)=O)c4)cn3)nc2)CC1 [Example 89] | 64.9% | 14.4 |
| CS(=O)(=O)Nc1cc(Br)cc(NC(=O)c2cc(Cc3ccc[nH]3)cs2)c1 [Example 104, 4-((1H-pyrrol-2-yl)methyl)-N-(3-bromo-5-(methylsulfonamido)phenyl)-thiophene-2-carboxamide] | 68% | 61 |
| CS(=O)(=O)Nc1cc(Cl)cc(NC(=O)c2cc(-c3ccccn3)c(C3CC3)s2)c1 [Example 177, N-(3-chloro-5-(methylsulfonamido)phenyl)-5-cyclopropyl-4-(pyridin-2-yl)thiophene-2-carboxamide] | 77% | 21.6 |
| Cn1cc(C(=O)Nc2cc(Cl)cc(NS(=O)(=O)CCO)c2)cc1-c1ncc(F)cc1F [Example 581] | 50.5 | 99.1 |
| CS(=O)(=O)Nc1cc(Cl)cc(NC(=O)c2cc3c(F)cccn3c2)c1 [Example 305] | 63.8% | 95.3 |
| Cn1cc(C(=O)Nc2cc(Cl)cc(NS(C)(=O)=O)c2)cc1-c1ccc(N2CCN(C(=O)C(C)(C)C)CC2)cn1 [Example 591] | 65.9 | 18.3 |
| CS(=O)(=O)Nc1cc(Cl)cc(NC(=O)c2cnn(-c3ncccc3OCc3ccccn3)c2)c1 [Example 63] | 66.2% | 83.9 |
| CS(=O)(=O)Nc1cc(Cl)cc(NC(=O)c2cc(-c3ncccc3F)n(CC(F)(F)F)c2)c1 [Example 564] | 77.8 | 70.1 |
| Cc1sc(C(=O)Nc2cc(Cl)cc(NS(C)(=O)=O)c2)cc1-c1ncc(N2CCC(C(F)(F)F)CC2)cc1F [Example 481] | 62.1 | 204 |
| CS(=O)(=O)Nc1cc(Cl)cc(NC(=O)c2cnn([C@@H]3CCCC[C@H]3O)c2)c1 (relative stereo) [Example 150, N-(3-chloro-5-(methylsulfonamido)phenyl)-1-(trans-2-hydroxycyclohexyl)-1H-pyrazole-4-carboxamide] | 65.9% |  |
| CS(=O)(=O)Nc1cc(Cl)cc(NC(=O)c2csc(-c3ccccc3)c2)c1 [Example 124, N-(3-chloro-5-(methylsulfonamido)phenyl)-5-phenylthiophene-3-carboxamide] | 53.8% | 604 |
| Cc1sc(C(=O)Nc2cc(Cl)cc(NS(C)(=O)=O)c2)cc1-c1c(F)cccc1OCc1ccccc1 [Example 240] | 71% | 353 |
| CCn1cc(C(=O)Nc2cc(Cl)cc(NS(C)(=O)=O)c2)cc1-c1ccc(N2CCOCC2)cn1 [Example 274] | 72.1% | 32.2 |
| Cc1cc(F)cc(C#N)c1-c1cc(C(=O)Nc2cc(Cl)cc(NS(C)(=O)=O)c2)cn1C [Example 659] | 50.7 | 68.8 |
| CS(=O)(=O)Nc1cc(F)cc(NC(=O)c2cc(-c3ccccc3)cs2)c1 [Example 73] | 63% | 189 |
| CC(=O)N1CCN(c2ccnc(-n3cc(C(=O)Nc4cc(Cl)cc(NS(C)(=O)=O)c4)cn3)c2)CC1 [Example 148, 1-(4-(4-acetylpiperazin-1-yl)pyridin-2-yl)-N-(3-chloro-5-(methylsulfonamido)phenyl)-1H-pyrazole-4-carboxamide] | 63.3% | 18.5 |
| CS(=O)(=O)Nc1cc(Cl)cc(NC(=O)c2cnn(C3CC4(C3)CN(CC(F)(F)F)C4)c2)c1 [Example 312] | 69.2% | 220 |

| SMILES | DHX9 Biochemical Max Inhibition | IC50 [nM] |
| --- | --- | --- |
| CS(=O)(=O)Nc1cc(Cl)cc(NC(=O)c2cnn(-c3ncccc3OCc3cn[nH]c3)c2)c1 [Example 206] | 74.9% | 16.8 |
| Cn1cc(C(=O)Nc2cc(Cl)cc(NS(C)(=O)=O)c2)cc1-c1ncc(N2CCC3(CC2)CC3)cc1F [Example 468] | 96 | 132 |
| CS(=O)(=O)Nc1cc(Cl)cc(NC(=O)c2cc3cc(F)ccc3s2)c1 [Example 295] | 63.8% | 307 |
| Cc1sc(C(=O)Nc2cc(Cl)cc(NS(C)(=O)=O)c2)cc1-c1ncc(C2(F)COC2)cn1 [Example 680] | 95 | 3 |
| Cc1sc(C(=O)Nc2cc(Cl)cc(NS(C)(=O)=O)c2)cc1-c1ncc(F)cc1-c1cnco1 [Example 705] | 55.6 | 19.2 |
| Cn1cc(C(=O)Nc2cc(Cl)cc(NS(C)(=O)=O)c2)cc1-c1ncc(F)cc1-c1cncc(F)c1 [Example 604, N-(3-chloro-5-methanesulfonamidophenyl)-5-{5,5′-difluoro-[3,3′-bipyridin]-2-yl}-1-methylpyrrole-3-carboxamide] | 69.1 | 37 |
| CCS(=O)(=O)Nc1cc(Cl)cc(NC(=O)c2cc(-c3ncc(C(F)(F)F)cn3)c(C)s2)c1 [Example 366] | 76.2% | 46.7 |
| CC(C)(C)OC(=O)N1CCC(n2cc(C(=O)Nc3cc(Cl)cc(NS(C)(=O)=O)c3)cn2)CC1 [Example 136] | 59.6% |  |
| Cc1sc(C(=O)Nc2cc(Cl)cc(NS(C)(=O)=O)c2)cc1-c1ncc(OC(C)(C)C)cc1F [Example 381] | 67.4% |  |
| CN(C)CCOc1cnc(-c2cc(C(=O)Nc3cc(Cl)cc(NS(C)(=O)=O)c3)cn2C)c(F)c1 [Example 646] | 66.6 | 7.9 |
| CS(=O)(=O)Nc1cc(Cl)cc(NC(=O)c2cc(C(=O)N3CCN(c4ccccc4)CC3)n(-c3ccccn3)c2)c1 [Example 654] | 72.7 | 21.6 |
| Cc1cc(C(=O)Nc2cc(Cl)cc(NS(C)(=O)=O)c2)cn1-c1ncc(OC(C)(C)C)cn1 [Example 664] | 68.8 | 87.7 |
| COc1cnn(-c2cc(C(=O)Nc3cc(Cl)cc(NS(C)(=O)=O)c3)sc2C)c1 [Example 436] | 81.4 | 15.7 |
| CS(=O)(=O)Nc1cc(Cl)cc(NC(=O)c2cnn(C3CCN(CC(F)(F)F)CC3)c2)c1 [Example 316] | 66.6% | 205 |
| COc1cccc2sc(C(=O)Nc3cc(Cl)cc(NS(C)(=O)=O)c3)cc12 [Example 321] | 79.2% | 13.5 |
| CC1CN(c2ccc(-n3cc(C(=O)Nc4cc(Cl)cc(NS(C)(=O)=O)c4)cn3)nc2)CCO1 (stereo not drawn) [Example 92] | 61.1% | 22.1 |
| CS(=O)(=O)Nc1cc(Cl)cc(NC(=O)c2cc(N3CCOC3=O)cs2)c1 [Example 433] | 71.2 | 24.1 |
| COC(=O)N1CCN(c2ccc(-c3cc(C(=O)Nc4cc(Cl)cc(NS(C)(=O)=O)c4)cn3C)nc2)CC1 [Example 596] | 72.2 | 18.1 |
| CS(=O)(=O)Nc1cc(Cl)cc(NC(=O)c2cnn(-c3ncccc3Oc3cccnc3)c2)c1 [Example 676] | 68.4 | 70 |
| CC(C)(O)COc1cccnc1-n1cc(C(=O)Nc2cc(Cl)cc(NS(C)(=O)=O)c2)cn1 [Example 195] | 67.1% | 35.3 |
| CS(=O)(=O)Nc1cc(F)cc(NC(=O)c2c[nH]c(Br)c2)c1 [Example 2] | 64.8% | 173 |
| Cn1cc(C(=O)Nc2cc(Cl)cc(NS(C)(=O)=O)c2)cc1-c1ncc(F)cn1 [Example 171, N-(3-chloro-5-(methylsulfonamido)phenyl)-5-(5-fluoropyrimidin-2-yl)-1-methyl-1H-pyrrole-3-carboxamide] | 61.8% | 14.5 |
| Cc1sc(C(=O)Nc2cc(Cl)cc(NS(C)(=O)=O)c2)cc1-c1ncc(N2CC(F)(F)C2)cc1OCC(F)(F)F [Example 707] | 67.1 | 28.3 |
| CS(=O)(=O)Nc1cc(Cl)cc(NC(=O)c2cnn(-c3ncccc3OCc3c[nH]cn3)c2)c1 [Example 254] | 64.1% | 59.5 |
| Cn1cc(C(=O)Nc2cc(Cl)cc(NS(C)(=O)=O)c2)cc1-c1ncncc1OCc1cc(F)cc(F)c1 [Example 627] | 75.8 | 29.4 |
